Assay results published in ChEMBL document CHEMBL4507281, “Data for DCP probe BI-4394” (2021).

Experiments:
[1] = target: Casein kinase I isoform epsilon (Homo sapiens) (UniProt P49674); conditions: Compound concentration 100.0 nM
[2] = target: Serine/threonine-protein kinase pim-1 (Homo sapiens) (UniProt P11309); conditions: Compound concentration 100.0 nM
[3] = target: Activin receptor type-1 (Homo sapiens) (UniProt Q04771); conditions: Compound concentration 100.0 nM
[4] = target: Non-receptor tyrosine-protein kinase TNK1 (Homo sapiens) (UniProt Q13470); conditions: Compound concentration 100.0 nM
[5] = tested on: eIF-2-alpha kinase GCN2 (Homo sapiens), Q9P2K8 [S808G]; conditions: Compound concentration 100.0 nM
[6] = target: Cyclin-dependent kinase-like 1 (Homo sapiens) (UniProt Q00532); conditions: Compound concentration 100.0 nM
[7] = target: Serine/threonine-protein kinase SIK1 (Homo sapiens) (UniProt P57059); conditions: Compound concentration 100.0 nM
[8] = target: Calcium/calmodulin-dependent protein kinase type 1G (Homo sapiens) (UniProt Q96NX5); conditions: Compound concentration 100.0 nM
[9] = target: Death-associated protein kinase 3 (Homo sapiens) (UniProt O43293); conditions: Compound concentration 100.0 nM
D(1B) dopamine receptor = D(1B) dopamine receptor (Homo sapiens, UniProt P21918); assay: GPCRScan assay: inhibition of D5; set-up: radioligand conc. used [nm] 2.0 – 3.0, parental cells HEKT
[10] = target: Receptor-interacting serine/threonine-protein kinase 4 (Homo sapiens) (UniProt P57078); conditions: Compound concentration 100.0 nM
[11] = target: Insulin receptor-related protein (Homo sapiens) (UniProt P14616); conditions: Compound concentration 100.0 nM
[12] = target: Serine/threonine-protein kinase PLK1 (Homo sapiens) (UniProt P53350); conditions: Compound concentration 100.0 nM
[13] = tested on: Tyrosine-protein kinase ABL1 (Homo sapiens), P00519 [Q252H]; conditions: Compound concentration 100.0 nM
[14] = target: Cyclin-dependent kinase 2 (Homo sapiens) (UniProt P24941); conditions: Compound concentration 100.0 nM
[15] = target: Hormonally up-regulated neu tumor-associated kinase (Homo sapiens) (UniProt P57058); conditions: Compound concentration 100.0 nM
[16] = target: Homeodomain-interacting protein kinase 1 (Homo sapiens) (UniProt Q86Z02); conditions: Compound concentration 100.0 nM
[17] = target: Mitogen-activated protein kinase kinase kinase 6 (Homo sapiens) (UniProt O95382); conditions: Compound concentration 100.0 nM
[18] = target: Mitogen-activated protein kinase 10 (Homo sapiens) (UniProt P53779); conditions: Compound concentration 100.0 nM
[19] = target: Serine/threonine-protein kinase N2 (Homo sapiens) (UniProt Q16513); conditions: Compound concentration 100.0 nM
[20] = target: MAP/microtubule affinity-regulating kinase 4 (Homo sapiens) (UniProt Q96L34); conditions: Compound concentration 100.0 nM
[21] = target: Serine/threonine-protein kinase PLK2 (Homo sapiens) (UniProt Q9NYY3); conditions: Compound concentration 100.0 nM
[22] = tested on: Tyrosine-protein kinase ABL1 (Homo sapiens), P00519 [E255K]; conditions: Compound concentration 100.0 nM
[23] = target: Tyrosine-protein kinase Lyn (Homo sapiens) (UniProt P07948); conditions: Compound concentration 100.0 nM
[24] = target: Phosphatidylinositol 4-phosphate 5-kinase type-1 gamma (Homo sapiens) (UniProt O60331); conditions: Compound concentration 100.0 nM
[25] = target: Serine/threonine-protein kinase MARK2 (Homo sapiens) (UniProt Q7KZI7); conditions: Compound concentration 100.0 nM
[26] = target: Serine/threonine-protein kinase NIM1 (Homo sapiens) (UniProt Q8IY84); conditions: Compound concentration 100.0 nM
[27] = target: Mast/stem cell growth factor receptor Kit (Homo sapiens) (UniProt P10721); conditions: Compound concentration 100.0 nM
[28] = target: Interferon-induced, double-stranded RNA-activated protein kinase (Homo sapiens) (UniProt P19525); conditions: Compound concentration 100.0 nM
Rattus norvegicus = species: Rattus norvegicus; conditions: Compound concentration 10.0 uM
[29] = target: Bone morphogenetic protein receptor type-1B (Homo sapiens) (UniProt O00238); conditions: Compound concentration 100.0 nM
[30] = target: Serine/threonine-protein kinase SBK1 (Homo sapiens) (UniProt Q52WX2); conditions: Compound concentration 100.0 nM
[31] = target: Insulin-like growth factor 1 receptor (Homo sapiens) (UniProt P08069); conditions: Compound concentration 100.0 nM
[32] = target: SRSF protein kinase 2 (Homo sapiens) (UniProt P78362); conditions: Compound concentration 100.0 nM
[33] = target: NUAK family SNF1-like kinase 2 (Homo sapiens) (UniProt Q9H093); conditions: Compound concentration 100.0 nM
[34] = target: Tyrosine-protein kinase Fer (Homo sapiens) (UniProt P16591); conditions: Compound concentration 100.0 nM
[35] = tested on: Tyrosine-protein kinase ABL1 (Homo sapiens), P00519 [Y253F]; conditions: Compound concentration 100.0 nM
[36] = target: Activin receptor type-2A (Homo sapiens) (UniProt P27037); conditions: Compound concentration 100.0 nM

Sequence of SRSF protein kinase 2 (Homo sapiens) (P78362 whole entry, looked up): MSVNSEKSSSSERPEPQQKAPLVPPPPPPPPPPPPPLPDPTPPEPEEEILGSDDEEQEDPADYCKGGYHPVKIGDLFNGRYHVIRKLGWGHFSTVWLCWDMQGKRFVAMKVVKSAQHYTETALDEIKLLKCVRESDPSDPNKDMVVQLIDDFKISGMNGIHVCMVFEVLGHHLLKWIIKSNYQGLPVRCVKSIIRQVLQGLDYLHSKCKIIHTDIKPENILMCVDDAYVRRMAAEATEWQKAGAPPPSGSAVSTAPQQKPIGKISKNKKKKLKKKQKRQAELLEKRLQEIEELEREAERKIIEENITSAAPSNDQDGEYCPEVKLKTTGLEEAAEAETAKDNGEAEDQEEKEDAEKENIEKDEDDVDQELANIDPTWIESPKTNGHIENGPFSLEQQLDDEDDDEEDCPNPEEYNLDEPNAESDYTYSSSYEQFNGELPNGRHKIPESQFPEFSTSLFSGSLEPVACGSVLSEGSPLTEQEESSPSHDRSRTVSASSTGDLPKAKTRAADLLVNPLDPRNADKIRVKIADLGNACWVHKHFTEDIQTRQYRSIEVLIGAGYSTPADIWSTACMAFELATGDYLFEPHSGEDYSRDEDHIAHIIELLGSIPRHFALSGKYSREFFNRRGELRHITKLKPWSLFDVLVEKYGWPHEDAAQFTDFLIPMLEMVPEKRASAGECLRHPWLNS
Sequence of Mitogen-activated protein kinase 10 (Homo sapiens) (P53779 whole entry): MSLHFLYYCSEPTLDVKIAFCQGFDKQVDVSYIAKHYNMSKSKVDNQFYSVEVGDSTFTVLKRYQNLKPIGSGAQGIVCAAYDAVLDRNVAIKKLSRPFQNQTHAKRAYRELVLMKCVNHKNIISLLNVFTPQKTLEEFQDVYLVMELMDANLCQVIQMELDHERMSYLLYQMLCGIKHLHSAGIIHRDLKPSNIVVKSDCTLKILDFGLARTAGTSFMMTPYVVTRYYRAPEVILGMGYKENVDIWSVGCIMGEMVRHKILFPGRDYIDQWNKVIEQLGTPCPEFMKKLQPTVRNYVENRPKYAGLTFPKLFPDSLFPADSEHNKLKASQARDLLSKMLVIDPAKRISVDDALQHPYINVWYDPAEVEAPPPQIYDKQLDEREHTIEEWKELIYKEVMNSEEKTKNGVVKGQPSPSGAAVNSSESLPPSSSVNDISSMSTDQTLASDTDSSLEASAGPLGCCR
Sequence of D(1B) dopamine receptor (P21918 whole entry): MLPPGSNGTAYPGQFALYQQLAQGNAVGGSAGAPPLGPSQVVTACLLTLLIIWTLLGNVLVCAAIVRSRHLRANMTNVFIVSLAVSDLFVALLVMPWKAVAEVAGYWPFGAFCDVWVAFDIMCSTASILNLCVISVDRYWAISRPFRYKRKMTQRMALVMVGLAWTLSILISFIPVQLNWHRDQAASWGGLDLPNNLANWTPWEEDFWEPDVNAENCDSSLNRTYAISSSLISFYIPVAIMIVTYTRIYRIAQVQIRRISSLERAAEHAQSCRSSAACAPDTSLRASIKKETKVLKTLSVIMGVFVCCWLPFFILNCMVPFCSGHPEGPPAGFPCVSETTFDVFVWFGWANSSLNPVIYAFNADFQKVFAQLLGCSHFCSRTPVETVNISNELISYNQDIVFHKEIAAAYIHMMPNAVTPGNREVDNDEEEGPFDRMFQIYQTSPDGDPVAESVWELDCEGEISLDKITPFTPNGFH
Sequence of Serine/threonine-protein kinase MARK2 (Homo sapiens) (Q7KZI7 whole entry): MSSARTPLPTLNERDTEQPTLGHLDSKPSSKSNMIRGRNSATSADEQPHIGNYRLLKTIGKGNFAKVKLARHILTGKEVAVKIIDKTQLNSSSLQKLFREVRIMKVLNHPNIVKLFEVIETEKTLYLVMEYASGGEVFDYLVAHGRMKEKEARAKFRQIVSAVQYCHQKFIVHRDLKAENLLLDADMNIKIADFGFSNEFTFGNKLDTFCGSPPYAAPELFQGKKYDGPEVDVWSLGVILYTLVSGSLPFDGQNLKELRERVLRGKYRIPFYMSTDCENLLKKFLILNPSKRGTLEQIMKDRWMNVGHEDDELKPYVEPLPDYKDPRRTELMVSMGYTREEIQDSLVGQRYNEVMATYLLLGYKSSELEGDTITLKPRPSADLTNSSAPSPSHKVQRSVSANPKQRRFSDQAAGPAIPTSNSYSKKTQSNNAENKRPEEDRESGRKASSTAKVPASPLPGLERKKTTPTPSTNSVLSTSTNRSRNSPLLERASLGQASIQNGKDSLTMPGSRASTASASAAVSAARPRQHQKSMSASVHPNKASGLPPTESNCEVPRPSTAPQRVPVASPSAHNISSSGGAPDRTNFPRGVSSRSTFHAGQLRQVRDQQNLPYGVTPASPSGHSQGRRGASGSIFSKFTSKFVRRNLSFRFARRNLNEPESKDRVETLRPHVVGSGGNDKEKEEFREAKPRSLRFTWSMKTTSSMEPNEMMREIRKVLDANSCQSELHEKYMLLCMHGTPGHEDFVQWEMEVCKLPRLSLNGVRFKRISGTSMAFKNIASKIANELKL
Sequence of Bone morphogenetic protein receptor type-1B (Homo sapiens) (O00238 whole entry): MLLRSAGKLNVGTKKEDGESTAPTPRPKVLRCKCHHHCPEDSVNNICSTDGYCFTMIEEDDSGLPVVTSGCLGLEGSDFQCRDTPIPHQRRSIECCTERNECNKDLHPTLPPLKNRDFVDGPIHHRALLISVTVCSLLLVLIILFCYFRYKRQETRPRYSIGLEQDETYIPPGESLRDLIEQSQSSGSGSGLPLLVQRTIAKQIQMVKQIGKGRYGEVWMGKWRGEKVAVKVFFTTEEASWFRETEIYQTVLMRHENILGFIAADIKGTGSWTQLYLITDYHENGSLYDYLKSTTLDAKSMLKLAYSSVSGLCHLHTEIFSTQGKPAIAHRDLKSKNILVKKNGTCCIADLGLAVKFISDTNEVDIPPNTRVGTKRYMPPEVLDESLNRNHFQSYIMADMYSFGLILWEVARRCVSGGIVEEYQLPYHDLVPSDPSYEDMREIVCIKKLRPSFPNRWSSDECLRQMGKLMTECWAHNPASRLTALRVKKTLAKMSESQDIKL
Sequence of Insulin-like growth factor 1 receptor (Homo sapiens) (P08069 31-736 limits assumed): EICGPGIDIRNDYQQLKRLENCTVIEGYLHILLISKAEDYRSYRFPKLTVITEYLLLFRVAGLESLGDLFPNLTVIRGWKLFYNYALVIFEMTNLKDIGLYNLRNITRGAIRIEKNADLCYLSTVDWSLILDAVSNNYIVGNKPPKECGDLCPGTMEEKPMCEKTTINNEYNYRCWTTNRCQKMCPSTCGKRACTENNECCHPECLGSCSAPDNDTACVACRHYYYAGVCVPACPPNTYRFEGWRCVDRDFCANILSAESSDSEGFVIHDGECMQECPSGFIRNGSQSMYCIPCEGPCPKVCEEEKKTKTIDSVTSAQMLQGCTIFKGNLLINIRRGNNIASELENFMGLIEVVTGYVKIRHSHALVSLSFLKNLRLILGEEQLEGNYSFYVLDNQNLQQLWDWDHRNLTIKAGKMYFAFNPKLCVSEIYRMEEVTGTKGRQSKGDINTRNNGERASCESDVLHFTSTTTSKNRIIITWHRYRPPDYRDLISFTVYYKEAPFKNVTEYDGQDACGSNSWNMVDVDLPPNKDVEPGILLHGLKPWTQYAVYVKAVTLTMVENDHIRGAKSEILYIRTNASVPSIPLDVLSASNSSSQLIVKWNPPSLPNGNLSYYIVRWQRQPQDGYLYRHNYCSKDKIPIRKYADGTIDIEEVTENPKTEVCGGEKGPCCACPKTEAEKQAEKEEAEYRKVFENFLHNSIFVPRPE
Sequence of Insulin-like growth factor 1 receptor (Homo sapiens) (P08069 741-1367 limits assumed): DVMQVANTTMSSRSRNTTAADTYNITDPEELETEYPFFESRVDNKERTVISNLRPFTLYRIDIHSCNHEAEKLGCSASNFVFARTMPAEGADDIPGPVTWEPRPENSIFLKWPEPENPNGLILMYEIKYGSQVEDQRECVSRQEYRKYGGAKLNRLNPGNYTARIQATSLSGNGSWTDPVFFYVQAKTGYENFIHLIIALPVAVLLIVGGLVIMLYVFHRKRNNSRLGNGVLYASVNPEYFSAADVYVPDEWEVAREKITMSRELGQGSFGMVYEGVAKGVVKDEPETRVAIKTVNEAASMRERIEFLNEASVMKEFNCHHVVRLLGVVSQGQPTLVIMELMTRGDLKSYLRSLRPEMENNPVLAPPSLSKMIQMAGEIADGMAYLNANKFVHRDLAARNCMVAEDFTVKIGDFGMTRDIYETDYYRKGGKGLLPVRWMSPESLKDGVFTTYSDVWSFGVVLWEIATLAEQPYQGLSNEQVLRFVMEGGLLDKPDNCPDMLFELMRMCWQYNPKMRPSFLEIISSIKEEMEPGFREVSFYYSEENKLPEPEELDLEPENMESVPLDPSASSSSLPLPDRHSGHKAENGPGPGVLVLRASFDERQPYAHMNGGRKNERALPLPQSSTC
Sequence of Cyclin-dependent kinase-like 1 (Homo sapiens) (Q00532 whole entry): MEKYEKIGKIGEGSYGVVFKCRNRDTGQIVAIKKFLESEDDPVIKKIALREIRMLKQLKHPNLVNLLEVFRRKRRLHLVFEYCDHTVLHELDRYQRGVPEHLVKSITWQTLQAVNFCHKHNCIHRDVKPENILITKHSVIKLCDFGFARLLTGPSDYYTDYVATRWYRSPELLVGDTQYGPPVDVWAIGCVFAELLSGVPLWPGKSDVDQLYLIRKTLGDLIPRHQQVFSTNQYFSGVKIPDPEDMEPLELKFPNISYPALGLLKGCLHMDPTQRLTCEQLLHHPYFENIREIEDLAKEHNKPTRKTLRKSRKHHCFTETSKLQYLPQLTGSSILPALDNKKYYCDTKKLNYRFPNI
Sequence of Serine/threonine-protein kinase pim-1 (Homo sapiens) (P11309 whole entry, looked up): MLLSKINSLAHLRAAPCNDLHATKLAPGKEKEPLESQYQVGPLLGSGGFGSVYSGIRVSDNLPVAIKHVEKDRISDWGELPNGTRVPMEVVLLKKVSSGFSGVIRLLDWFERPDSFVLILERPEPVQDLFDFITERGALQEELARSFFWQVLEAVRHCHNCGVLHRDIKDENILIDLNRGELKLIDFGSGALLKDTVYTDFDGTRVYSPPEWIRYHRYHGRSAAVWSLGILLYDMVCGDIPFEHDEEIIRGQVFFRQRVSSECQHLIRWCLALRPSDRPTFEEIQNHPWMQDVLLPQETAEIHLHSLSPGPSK

SMILES | residual activity [1] [%] | residual activity [2] [%] | residual activity [3] [%] | residual activity [4] [%] | residual activity [5] [%] | residual activity [6] [%] | residual activity [7] [%] | residual activity [8] [%] | residual activity [9] [%] | Ki (D(1B) dopamine receptor) [µM] | residual activity [10] [%] | residual activity [11] [%] | residual activity [12] [%] | residual activity [13] [%] | residual activity [14] [%] | residual activity [15] [%] | residual activity [16] [%] | residual activity [17] [%] | residual activity [18] [%] | residual activity [19] [%] | also measured
CCOC(=O)c1cc2cc(-c3cc(C(=O)NCc4ccc(C(=O)O)cc4)nn3C)ccc2[nH]1 [BI 4394] | 100 | 95 | 84 | 88 | 100 | 77 | 97 | 100 | 98 | 10 | 82 | 77 | 90 | 81 | 90 | 100 | 91 | 79 | 100 | 86 | residual activity [20]: 79%; residual activity [21]: 80%; residual activity [22]: 88%; residual activity [23]: 100%; residual activity [24]: 100%; residual activity [25]: 100%; residual activity [26]: 79%; residual activity [27]: 97%; residual activity [28]: 100%; inhibition (Rattus norvegicus): -1.91%; residual activity [29]: 96%; residual activity [30]: 90%; residual activity [31]: 82%; residual activity [32]: 100%; residual activity [33]: 85%; residual activity [34]: 100%; residual activity [35]: 93%; residual activity [36]: 59%
Cn1nc(C(=O)NCc2ccc(C(=O)O)cc2)cc1-c1ccc2[nH]ccc2c1 [BI 4395] | 80 | 91 | 99 | 100 | 94 | 70 | 100 | 89 | 86 | 10 | 68 | 98 | 95 | 77 | 91 | 65 | 85 | 88 | 76 | 100 | residual activity [20]: 100%; residual activity [21]: 100%; residual activity [22]: 65%; residual activity [23]: 100%; residual activity [24]: 91%; residual activity [25]: 100%; residual activity [26]: 78%; residual activity [27]: 97%; residual activity [28]: 84%; inhibition (Rattus norvegicus): 6.39%; residual activity [29]: 88%; residual activity [30]: 77%; residual activity [31]: 91%; residual activity [32]: 85%; residual activity [33]: 87%; residual activity [34]: 93%; residual activity [35]: 100%; residual activity [36]: 98%
